Assay results as given in patent EP4692088A1, “COMPOUND ACTING AS WRN HELICASE INHIBITOR” (SHANGHAI JEYOU PHARMACEUTICAL CO., LTD., priority 2023, dated 2024).

Legend:
HCT116 cells = experiment: Cell proliferation assay (CellTiter-Glo), HCT116; type: cell-based; details: Homo sapiens, 120 h, HCT-116, 5 days incubation
Method: (§1) SW48 cells were plated at a density of 1,500 cells/well, and LoVo, HCT116, and SW620 cells were plated at a density of 800 cells/well in a 96-well cell culture plate, and cultured in a 37°C incubator overnight. The test compounds, which were gradient-diluted with DMSO, were added, and after incubation for 5 days, cell viability was detected using a CellTiter-Glo kit. The CellTiter-Glo reagent was equilibrated to room temperature, and an appropriate amount was added to the cell plate, followed by shaking at room temperature for 12 min. The luminescence signal was detected using a microplate reader.
(§2) The luminescence signal values of the DMSO-treated wells and cell-free wells were used as negative and positive controls, respectively, to calculate the inhibition rate of compound on cell proliferation. The concentration-inhibition curve was fitted using the "log(inhibitor) vs. normalized response -- Variable slope" equation in GraphPad Prism 8 software to obtain the IC50. [formula]

LoVo = experiment: Cell proliferation assay (CellTiter-Glo), LoVo; type: cell-based; details: Homo sapiens, 120 h, 5 days incubation
Method: as §1, §2

Work on `CCc1c(N2CCN(C(=O)c3ncnc(C)c3O)CC2)c(=O)c2nn(C3=CCOCC3)nc2n1CC(=O)Nc1ccc(C(F)(F)F)cc1Cl` [Example 4] yielded an IC50 (HCT116 cells) of 48 nM and an IC50 (LoVo) of 105 nM.
